Drawing on US11648254B2 (Kumquat Biosciences Inc., priority 2021, dated 2023), this text covers IC50 for 13 molecules.

In assay [1] the test system is NCI-H1975 cells (EGFR T790M L858R). As to the kind of experiment: EGFR-SOS cellular inhibition assay (CellTiter-Glo, 3D). The format is cell-based. The settings on record: Homo sapiens.
For assay [2], the system named is MIA PaCa-2 cells (K-Ras G12C). As to the kind of experiment: Ras-SOS cellular growth inhibition assay (CellTiter-Glo, 3D). The class given is cell-based. The settings on record: Homo sapiens. In short, it runs like this:
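MIA PaCa-2 cells grown in ultra-low-attachment plates (3D) in DMEM/Ham's F12 with 10% FCS and 2.5% horse serum, treated the day after seeding with a 9-point 3-fold compound series for about 5 days. Viability by CellTiter-Glo luminescence; IC50 from four-parameter fit.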

The next assay concerns the target SOS1 (Homo sapiens (Human), UniProt Q07889). As to the kind of experiment: Ras-SOS interaction assay (HTRF). The format is biochemical.
Where [3] appears, read: 120 h, NCI-H1975, 3D proliferation, about 5 days, read-out: Bio-Cell-Prolif-3D (H1975 IC50).
[4] abbreviates: NCI-H1975, EGFR T790M L858R, read-out: IC50 in inhibiting growth of NCI-H1975 cell line.
The mark [5] stands for this setting: MIA PaCa-2, 120 h, MIA PaCa-2, 3D proliferation, about 5 days, read-out: Bio-Cell-Prolif-3D (MiaPaca2 IC50).
Where [6] appears, read: MIA PaCa-2, MIA PaCa-2, read-out: IC50 in inhibiting MIA PaCa-2 cell growth.
Setting [7] is: K-RasG13D utilized, read-out: IC50 inhibition of SOS.
The mark [8] stands for this setting: K-RasG13D, read-out: IC50 value against SOS1.

Read-outs that look alike come from different tables or passages of the source. Where only a bound is given, the exact number is not on record here.

Sequence of SOS1 (Q07889 564-1049): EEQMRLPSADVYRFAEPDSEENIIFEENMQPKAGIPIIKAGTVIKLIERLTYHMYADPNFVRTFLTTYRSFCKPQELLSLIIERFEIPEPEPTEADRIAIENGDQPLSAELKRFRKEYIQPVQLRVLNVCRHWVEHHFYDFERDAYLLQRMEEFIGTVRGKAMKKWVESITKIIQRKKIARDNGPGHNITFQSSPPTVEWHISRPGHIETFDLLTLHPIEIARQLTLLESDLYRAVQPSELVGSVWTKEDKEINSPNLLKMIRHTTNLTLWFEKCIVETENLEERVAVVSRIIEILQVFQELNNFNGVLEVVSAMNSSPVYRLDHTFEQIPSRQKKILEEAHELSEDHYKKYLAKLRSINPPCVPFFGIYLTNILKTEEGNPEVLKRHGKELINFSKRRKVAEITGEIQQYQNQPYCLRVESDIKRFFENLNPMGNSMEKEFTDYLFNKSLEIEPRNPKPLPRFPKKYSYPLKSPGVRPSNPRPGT

Regarding `COc1nc2ncnc(N[C@H](C)c3cccc(C(F)(F)F)c3C)c2cc1N1CCN(C)CC1` [Compound 386, (R)-7-methoxy-N-(1-(2-methyl-3-(trifluoromethyl)phenyl)ethyl)-6-(4-methylpiperazin-1-yl)pyrido[2,3-d] pyrimidin-4-amine], the 50% inhibitory concentration (IC50) in assay [1] (setting [3]) is at most 1000 nM; in assay [1] (setting [4]) it was under 500 nM; in assay [2] (setting [5]), at most 1000 nM; in assay [2] (setting [6]), under 500 nM; on SOS1 (setting [7]), under 100 nM; at SOS1 (setting [8]) it was under 50 nM.

Turning to `Cc1nc(N[C@H](C)c2cccc(C(F)(F)F)c2F)c2cc(N3CCN(C(C)C)CC3)c(Cl)nc2n1` [Compound 387, (R)-7-chloro-N-(1-(2-fluoro-3-(trifluoromethyl)phenyl)ethyl)-6-(4-isopropylpiperazin-1-yl)-2-methylpyrido[2,3-d] pyrimidin-4-amine], the IC50 in assay [1] (setting [3]) was at most 1000 nM; in assay [1] (setting [4]) it was under 500 nM; in assay [2] (setting [5]) it was at most 1000 nM; in assay [2] (setting [6]), under 500 nM; at SOS1 (setting [7]), under 100 nM; on SOS1 (setting [8]) it was under 50 nM.

In the case of `Cc1nc(N[C@H](C)c2cccc(C(F)(F)F)c2C)c2cc(C3CCS(=O)(=O)CC3)c(Cl)nc2n1` [Compound 388, (R)-4-(7-chloro-2-methyl-4-((1-(2-methyl-3-(trifluoromethyl)phenyl)ethyl)amino)pyrido[2,3-d]pyrimidin-6-yl)tetrahydro-2H-thiopyran 1,1-dioxide], the IC50 in assay [1] (setting [3]) is at most 1000 nM; in assay [1] (setting [4]), under 500 nM; in assay [2] (setting [5]), at most 1000 nM; in assay [2] (setting [6]) it was under 500 nM; at SOS1 (setting [7]), under 100 nM; at SOS1 (setting [8]) it was under 50 nM.

For `Cc1nc(N[C@H](C)c2cccc(C(F)F)c2F)c2cc(C3CCS(=O)(=O)CC3)c(Cl)nc2n1` [Compound 389, (R)-4-(7-chloro-4-((1-(3-(difluoromethyl)-2-fluorophenyl)ethyl)amino)-2-methylpyrido[2,3-d]pyrimidin-6-yl)tetrahydro-2H-thiopyran 1,1-dioxide], the concentration for half-maximal inhibition (IC50) was at most 1000 nM in assay [1] (setting [3]); under 500 nM in assay [1] (setting [4]); at most 1000 nM in assay [2] (setting [5]); under 500 nM in assay [2] (setting [6]); under 100 nM at SOS1 (setting [7]); under 50 nM on SOS1 (setting [8]).

As for `Cc1nc(N[C@H](C)c2cccc(C(F)(F)F)c2C)c2cc(N3CCS(=O)(=O)CC3)c(Cl)nc2n1` [Compound 390, (R)-4-(7-chloro-2-methyl-4-((1-(2-methyl-3-(trifluoromethyl)phenyl)ethyl)amino)pyrido[2,3-d]pyrimidin-6-yl) thiomorpholine 1,1-dioxide], the IC50 in assay [1] (setting [3]) was at most 1000 nM; in assay [1] (setting [4]) it was under 500 nM; in assay [2] (setting [5]) it was at most 1000 nM; in assay [2] (setting [6]) it was under 500 nM; on SOS1 (setting [7]) it was under 100 nM; on SOS1 (setting [8]), under 50 nM.

Consider `Cc1nc(N[C@H](C)c2cccc(C(F)(F)F)c2F)c2cc(C3CCN(C(C)C)CC3)c(Cl)nc2n1` [Compound 391, (R)-7-chloro-N-(1-(2-fluoro-3-(trifluoromethyl)phenyl)ethyl)-6-(1-isopropylpiperidin-4-yl)-2-methylpyrido[2,3-d] pyrimidin-4-amine], for which the IC50 in assay [1] (setting [3]) is at most 1000 nM; in assay [1] (setting [4]), under 500 nM; in assay [2] (setting [5]), at most 1000 nM; in assay [2] (setting [6]), under 500 nM; on SOS1 (setting [7]), under 100 nM; at SOS1 (setting [8]), under 50 nM.

As to `Cc1nc(N[C@H](C)c2cccc(C(F)(F)F)c2C)c2cc(C3CCN(C(C)C)CC3)c(Cl)nc2n1` [Compound 392, (R)-7-chloro-6-(1-isopropylpiperidin-4-yl)-2-methyl-N-(1-(2-methyl-3-(trifluoromethyl)phenyl)ethyl)pyrido [2,3-d]pyrimidin-4-amine], the half-inhibitory concentration (IC50) in assay [1] (setting [3]) was at most 1000 nM; in assay [1] (setting [4]), under 500 nM; in assay [2] (setting [5]) it was at most 1000 nM; in assay [2] (setting [6]), under 500 nM; on SOS1 (setting [7]) it was under 100 nM; on SOS1 (setting [8]) it was under 50 nM.

In the case of `C[C@@H](Nc1ncnc2nc(Cl)c(C3CCS(=O)(=O)CC3)cc12)c1cccc(C(F)F)c1F` [Compound 393, (R)-4-(7-chloro-4-((1-(3-(difluoromethyl)-2-fluorophenyl)ethyl)amino)pyrido [2,3-d]pyrimidin-6-yl)tetrahydro-2H-thiopyran 1,1-dioxide], the IC50 in assay [1] (setting [3]) is at most 1000 nM; in assay [1] (setting [4]), under 500 nM; in assay [2] (setting [5]) it was at most 1000 nM; in assay [2] (setting [6]), under 500 nM; at SOS1 (setting [7]) it was under 100 nM; at SOS1 (setting [8]) it was under 50 nM.

Turning to `CC(C)N1CCN(c2cc3c(N[C@H](C)c4cccc(C(F)(F)F)c4F)ncnc3nc2Cl)CC1` [Compound 394, (R)-7-chloro-N-(1-(2-fluoro-3-(trifluoromethyl)phenyl)ethyl)-6-(4-isopropylpiperazin-1-yl)pyrido[2,3-d] pyrimidin-4-amine], the 50% inhibitory concentration (IC50) in assay [1] (setting [3]) is at most 1000 nM; in assay [1] (setting [4]), under 500 nM; in assay [2] (setting [5]) it was at most 1000 nM; in assay [2] (setting [6]) it was under 500 nM; at SOS1 (setting [7]) it was under 100 nM; at SOS1 (setting [8]), under 50 nM.

In the case of `Cc1c([C@@H](C)Nc2ncnc3nc(Cl)c(N4CCN(C(C)C)CC4)cc23)cccc1C(F)(F)F` [Compound 395, (R)-7-chloro-6-(4-isopropylpiperazin-1-yl)-N-(1-(2-methyl-3-(trifluoromethyl)phenyl)ethyl)pyrido [2,3-d]pyrimidin-4-amine], the IC50 in assay [1] (setting [3]) was at most 1000 nM; in assay [1] (setting [4]), under 500 nM; in assay [2] (setting [5]), at most 1000 nM; in assay [2] (setting [6]), under 500 nM; on SOS1 (setting [7]), under 100 nM; at SOS1 (setting [8]), under 50 nM.

With `Cc1nc(N[C@H](C)c2cccc(C(F)F)c2F)c2cc(C3(C#N)CC3)c(N3CCOCC3)nc2n1` [Compound 396, (R)-1-(4-((1-(3-(difluoromethyl)-2-fluorophenyl)ethyl)amino)-2-methyl-7-morpholinopyrido[2,3-d]pyrimidin-6-yl)cyclopropane-1-carbonitrile], the IC50 is at most 1000 nM in assay [1] (setting [3]); at most 1000 nM in assay [2] (setting [5]); under 500 nM in assay [2] (setting [6]); under 100 nM at SOS1 (setting [7]); under 50 nM on SOS1 (setting [8]).

As to `Cc1nc(N[C@H](C)c2cccc(C(F)F)c2F)c2cc(N3CCN(C)CC3)c(OCC3COC3)nc2n1` [Compound 397, (R)-N-(1-(3-(difluoromethyl)-2-fluorophenyl)ethyl)-2-methyl-6-(4-methylpiperazin-1-yl)-7-(oxetan-3-ylmethoxy)pyrido[2,3-d]pyrimidin-4-amine], the concentration for half-maximal inhibition (IC50) in assay [1] (setting [3]) is at most 1000 nM; in assay [1] (setting [4]) it was under 500 nM; in assay [2] (setting [5]) it was at most 1000 nM; in assay [2] (setting [6]), under 500 nM; at SOS1 (setting [7]), under 100 nM; on SOS1 (setting [8]), under 50 nM.

As for `CCN1CCC(c2cc3c(N[C@H](C)c4cccc(C(F)F)c4F)nc(C)nc3nc2OCCN(C)C)CC1` [Compound 399, (R)-N-(1-(3-(difluoromethyl)-2-fluorophenyl)ethyl)-7-(2-(dimethylamino)ethoxy)-6-(1-ethylpiperidin-4-yl)-2-methylpyrido[2,3-d] pyrimidin-4-amine], the IC50 in assay [1] (setting [3]) was at most 1000 nM; in assay [2] (setting [5]) it was 1000 to 10000 nM; at SOS1 (setting [7]), under 100 nM; on SOS1 (setting [8]), under 50 nM.
